Results on 2 compounds are retold here after article PMC6130310 (Frontiers in Molecular Neuroscience, 2018).

Holding throughout (assay): two-electrode voltage clamp, Xenopus oocytes
One assay addresses T1, zGlyRα2 homomer (Danio rerio, UniProt F1R8P4).
T1 construct: gene glra2; full-length cDNA in pCS2+, Kozak added; cRNA in Xenopus laevis oocytes; homopentamer; not the earlier 'zGlyRα2' (now α4a)
T1 sequence (F1R8P4 28-449): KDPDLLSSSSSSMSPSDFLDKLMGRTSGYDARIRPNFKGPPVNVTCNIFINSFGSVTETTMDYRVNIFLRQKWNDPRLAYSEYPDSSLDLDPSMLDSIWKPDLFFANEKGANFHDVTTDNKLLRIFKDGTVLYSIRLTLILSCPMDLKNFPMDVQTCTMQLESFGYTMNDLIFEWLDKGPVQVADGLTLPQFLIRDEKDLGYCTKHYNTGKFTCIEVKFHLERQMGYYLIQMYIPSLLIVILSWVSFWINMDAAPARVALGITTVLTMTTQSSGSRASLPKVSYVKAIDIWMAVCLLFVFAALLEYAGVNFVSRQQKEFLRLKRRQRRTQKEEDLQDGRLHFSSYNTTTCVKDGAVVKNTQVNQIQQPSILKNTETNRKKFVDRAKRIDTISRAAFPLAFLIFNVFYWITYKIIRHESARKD
The format is cell-based. The text has this: two-electrode voltage clamp, Xenopus oocytes on zGlyRα2 homomer

The next assay concerns the target T2, zGlyRα2/ßb (Danio rerio, UniProt F1R8P4+Q6DC22).
T2 construct: gene glra2; full-length cDNAs in pCS2+, cRNAs co-injected 1:1 in Xenopus laevis oocytes; heteropentamer
T2 sequence (F1R8P4 28-449): T1 sequence (F1R8P4 28-449)
T2 sequence (Q6DC22 23-494): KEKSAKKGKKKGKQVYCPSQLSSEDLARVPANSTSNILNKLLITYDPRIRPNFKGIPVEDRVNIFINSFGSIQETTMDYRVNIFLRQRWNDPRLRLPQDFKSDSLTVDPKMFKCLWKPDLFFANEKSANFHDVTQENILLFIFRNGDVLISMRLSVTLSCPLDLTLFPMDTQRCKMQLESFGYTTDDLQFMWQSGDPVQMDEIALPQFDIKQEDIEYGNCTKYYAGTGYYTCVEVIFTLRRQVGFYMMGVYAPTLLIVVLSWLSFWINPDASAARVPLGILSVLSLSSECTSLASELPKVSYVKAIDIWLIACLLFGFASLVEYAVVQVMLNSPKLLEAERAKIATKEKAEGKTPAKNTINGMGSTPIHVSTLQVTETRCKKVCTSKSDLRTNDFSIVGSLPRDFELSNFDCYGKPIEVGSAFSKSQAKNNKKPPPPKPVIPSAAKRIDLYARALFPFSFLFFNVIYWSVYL
Format: cell-based. An excerpt: two-electrode voltage clamp, Xenopus oocytes on zGlyRα2/ßb

The next assay has as its target T3, zGlyRα3/ßb (Danio rerio, UniProt A0A8M1PA31+Q6DC22).
T3 construct: gene glra3; full-length cDNAs in pCS2+, cRNAs co-injected 1:1 in Xenopus laevis oocytes; heteropentamer
T3 sequence (A0A8M1PA31 28-450): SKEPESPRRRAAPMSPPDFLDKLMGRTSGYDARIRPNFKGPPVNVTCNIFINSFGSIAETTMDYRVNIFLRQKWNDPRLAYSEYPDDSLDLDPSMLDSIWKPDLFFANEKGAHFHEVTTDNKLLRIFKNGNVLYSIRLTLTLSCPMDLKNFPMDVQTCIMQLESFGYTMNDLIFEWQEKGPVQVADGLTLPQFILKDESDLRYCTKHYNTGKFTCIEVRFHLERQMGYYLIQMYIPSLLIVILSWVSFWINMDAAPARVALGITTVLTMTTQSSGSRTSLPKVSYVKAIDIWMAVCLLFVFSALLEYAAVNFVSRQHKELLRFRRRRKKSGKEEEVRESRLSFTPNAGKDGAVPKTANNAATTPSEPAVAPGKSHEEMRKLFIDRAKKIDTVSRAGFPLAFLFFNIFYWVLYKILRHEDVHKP
T3 sequence (Q6DC22 23-494): T2 sequence (Q6DC22 23-494)
Format: cell-based. The text has this:
two-electrode voltage clamp, Xenopus oocytes on zGlyRα3/ßb

For another assay, the system named is T4, zGlyRα1/ßb.
T4 construct: gene glra1; full-length cDNAs in pCS2+, cRNAs co-injected 1:1 in Xenopus laevis oocytes; heteropentamer
The format is cell-based, Danio rerio. To be noted: -50 mV, pH 7.5, heteromers alpha:beta cRNA 1:1. An excerpt:
two-electrode voltage clamp, Xenopus oocytes on zGlyRα1/ßb

The target in a further assay is T5, zGlyRα4a homomer (Danio rerio, UniProt F1RDZ6).
T5 construct: gene glra4a; full-length cDNA in pCS2+, Kozak added; cRNA in Xenopus laevis oocytes; homopentamer
T5 sequence (F1RDZ6 28-457): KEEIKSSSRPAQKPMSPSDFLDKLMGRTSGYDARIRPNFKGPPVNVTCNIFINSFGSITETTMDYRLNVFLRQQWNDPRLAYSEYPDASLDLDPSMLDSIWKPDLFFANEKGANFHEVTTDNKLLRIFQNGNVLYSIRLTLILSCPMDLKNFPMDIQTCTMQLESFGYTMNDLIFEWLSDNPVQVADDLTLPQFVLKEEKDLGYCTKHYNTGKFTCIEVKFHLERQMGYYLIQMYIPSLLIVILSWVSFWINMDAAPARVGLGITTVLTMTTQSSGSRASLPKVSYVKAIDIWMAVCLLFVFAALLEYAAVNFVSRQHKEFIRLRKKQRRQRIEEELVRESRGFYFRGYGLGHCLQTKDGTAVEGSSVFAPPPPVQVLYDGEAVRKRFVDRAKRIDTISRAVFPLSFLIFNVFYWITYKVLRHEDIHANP
The format is cell-based. An excerpt: two-electrode voltage clamp, Xenopus oocytes on zGlyRα4a homomer

A further assay has as its target T6, zGlyRα4a/ßa (Danio rerio, UniProt A0ACM8PZL4+F1RDZ6).
T6 construct: gene glra4a; full-length cDNAs in pCS2+, cRNAs co-injected 1:1 in Xenopus laevis oocytes; heteropentamer
Format: cell-based. An excerpt:
two-electrode voltage clamp, Xenopus oocytes on zGlyRα4a/ßa

The target of the next assay is T7, zGlyRα4b/ßb (Danio rerio, UniProt A0A8M1P2L1+Q6DC22).
T7 construct: gene glra4b; full-length cDNAs in pCS2+, cRNAs co-injected 1:1 in Xenopus laevis oocytes; heteropentamer
T7 sequence (A0A8M1P2L1 25-492): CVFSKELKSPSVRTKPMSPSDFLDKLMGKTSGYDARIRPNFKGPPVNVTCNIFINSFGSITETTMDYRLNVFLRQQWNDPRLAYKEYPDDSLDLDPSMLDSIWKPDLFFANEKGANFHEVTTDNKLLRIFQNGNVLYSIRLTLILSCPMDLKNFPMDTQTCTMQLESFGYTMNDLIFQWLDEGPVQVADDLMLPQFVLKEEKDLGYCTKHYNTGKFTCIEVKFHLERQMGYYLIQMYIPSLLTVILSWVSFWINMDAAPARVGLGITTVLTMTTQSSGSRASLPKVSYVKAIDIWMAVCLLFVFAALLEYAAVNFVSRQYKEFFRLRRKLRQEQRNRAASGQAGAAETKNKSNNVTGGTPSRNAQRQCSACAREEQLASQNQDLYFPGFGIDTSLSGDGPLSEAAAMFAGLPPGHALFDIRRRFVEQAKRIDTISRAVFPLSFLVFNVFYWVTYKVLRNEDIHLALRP
T7 sequence (Q6DC22 23-494): T2 sequence (Q6DC22 23-494)
The format is cell-based. An excerpt:
two-electrode voltage clamp, Xenopus oocytes on zGlyRα4b/ßb

Another assay has as its target T8, zGlyRα2/ßa (Danio rerio, UniProt A0ACM8PZL4+F1R8P4).
T8 construct: gene glra2; full-length cDNAs in pCS2+, cRNAs co-injected 1:1 in Xenopus laevis oocytes; heteropentamer
The format is cell-based. An excerpt: two-electrode voltage clamp, Xenopus oocytes on zGlyRα2/ßa

For another assay, the system named is T9, zGlyRα1/ßa.
T9 construct: gene glra1; full-length cDNAs in pCS2+, cRNAs co-injected 1:1 in Xenopus laevis oocytes; heteropentamer
Format: cell-based, Danio rerio. Conditions: -50 mV, pH 7.5, heteromers alpha:beta cRNA 1:1. An excerpt:
two-electrode voltage clamp, Xenopus oocytes on zGlyRα1/ßa

The target in a further assay is T10, zGlyRα4b homomer (Danio rerio, UniProt A0A8M1P2L1).
T10 construct: gene glra4b; full-length cDNA in pCS2+, Kozak added; cRNA in Xenopus laevis oocytes; homopentamer
T10 sequence (A0A8M1P2L1 25-492): T7 sequence (A0A8M1P2L1 25-492)
Format: cell-based. An excerpt: two-electrode voltage clamp, Xenopus oocytes on zGlyRα4b homomer

A further assay deals with T11, zGlyRα1 homomer (Danio rerio, UniProt O93430).
T11 construct: gene glra1; full-length cDNA in pCS2+, Kozak added; cRNA in Xenopus laevis oocytes; homopentamer
T11 sequence (O93430 25-444): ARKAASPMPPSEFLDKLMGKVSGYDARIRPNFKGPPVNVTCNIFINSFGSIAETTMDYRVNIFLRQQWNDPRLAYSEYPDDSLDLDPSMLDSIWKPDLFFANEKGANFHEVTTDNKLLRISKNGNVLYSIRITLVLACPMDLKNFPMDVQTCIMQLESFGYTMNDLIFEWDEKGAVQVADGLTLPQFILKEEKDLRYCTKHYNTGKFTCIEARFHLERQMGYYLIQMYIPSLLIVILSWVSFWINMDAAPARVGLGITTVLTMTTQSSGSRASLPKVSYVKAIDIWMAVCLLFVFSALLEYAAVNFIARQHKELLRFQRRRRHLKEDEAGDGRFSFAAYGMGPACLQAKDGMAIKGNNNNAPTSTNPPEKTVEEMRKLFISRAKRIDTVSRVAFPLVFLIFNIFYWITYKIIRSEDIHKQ
The format is cell-based. The text has this:
two-electrode voltage clamp, Xenopus oocytes on zGlyRα1 homomer

The next assay addresses T12, zGlyRα4a/ßb (Danio rerio, UniProt F1RDZ6+Q6DC22).
T12 construct: gene glra4a; full-length cDNAs in pCS2+, cRNAs co-injected 1:1 in Xenopus laevis oocytes; heteropentamer
T12 sequence (F1RDZ6 28-457): T5 sequence (F1RDZ6 28-457)
T12 sequence (Q6DC22 23-494): T2 sequence (Q6DC22 23-494)
The format is cell-based. An excerpt: two-electrode voltage clamp, Xenopus oocytes on zGlyRα4a/ßb

Another assay has as its target T13, zGlyRα3/ßa (Danio rerio, UniProt A0A8M1PA31+A0ACM8PZL4).
T13 construct: gene glra3; full-length cDNAs in pCS2+, cRNAs co-injected 1:1 in Xenopus laevis oocytes; heteropentamer
Format: cell-based. The text has this: two-electrode voltage clamp, Xenopus oocytes on zGlyRα3/ßa

In a further assay the target is T14, zGlyRα4b/ßa (Danio rerio, UniProt A0A8M1P2L1+A0ACM8PZL4).
T14 construct: gene glra4b; full-length cDNAs in pCS2+, cRNAs co-injected 1:1 in Xenopus laevis oocytes; heteropentamer
T14 sequence (A0ACM8PZL4 23-498, one chain of several): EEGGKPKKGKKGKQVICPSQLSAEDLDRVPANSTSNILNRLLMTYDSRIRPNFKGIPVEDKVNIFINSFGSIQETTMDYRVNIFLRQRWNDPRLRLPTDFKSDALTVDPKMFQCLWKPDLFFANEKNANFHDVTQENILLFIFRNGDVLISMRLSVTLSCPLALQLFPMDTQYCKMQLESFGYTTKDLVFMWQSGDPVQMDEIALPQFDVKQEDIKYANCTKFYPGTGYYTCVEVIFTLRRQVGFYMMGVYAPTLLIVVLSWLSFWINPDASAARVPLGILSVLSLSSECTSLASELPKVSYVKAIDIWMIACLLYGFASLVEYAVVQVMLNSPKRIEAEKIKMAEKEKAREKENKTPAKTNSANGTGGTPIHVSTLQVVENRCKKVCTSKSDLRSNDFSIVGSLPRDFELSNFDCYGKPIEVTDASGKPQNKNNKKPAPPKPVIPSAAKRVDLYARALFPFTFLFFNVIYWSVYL
Format: cell-based. An excerpt: two-electrode voltage clamp, Xenopus oocytes on zGlyRα4b/ßa

Another assay concerns the target T15, zGlyRα3 homomer (Danio rerio, UniProt A0A8M1PA31).
T15 construct: gene glra3; full-length cDNA in pCS2+, Kozak added; cRNA in Xenopus laevis oocytes; homopentamer
T15 sequence (A0A8M1PA31 28-450): T3 sequence (A0A8M1PA31 28-450)
Format: cell-based. The text has this:
two-electrode voltage clamp, Xenopus oocytes on zGlyRα3 homomer

Where [1] appears, read: read-out: Glycine / EC50, agonist.
Where [2] appears, read: read-out: Strychnine / IC50, competitive antagonist, block of current evoked by 200 μM glycine.

T8 sequence (A0ACM8PZL4 23-498, one chain of several): as above
T6 sequence (A0ACM8PZL4 23-498, one chain of several): as above
T13 sequence (A0ACM8PZL4 23-498, one chain of several): as above

In the case of `NCC(=O)O` [glycine], the EC50 on zGlyRα2 homomer amounted to 138 ± 10 µM; on zGlyRα2/ßb, 343 ± 64 µM; on zGlyRα3/ßb, 260 ± 20 µM; with zGlyRα1/ßb (setting [1]) it was 194 ± 18 µM; at zGlyRα4a homomer, 200 ± 16 µM; on zGlyRα4a/ßa, 458 ± 82 µM. Also, the EC50 came out at 221 ± 15 µM on zGlyRα4b/ßb; 307 ± 30 µM at zGlyRα2/ßa; 186 ± 10 µM in the assay with zGlyRα1/ßa (setting [1]); 134 ± 15 µM at zGlyRα4b homomer; 102 ± 5.8 µM on zGlyRα1 homomer; 404 ± 24 µM on zGlyRα4a/ßb. For the same compound, the EC50 at zGlyRα3/ßa was determined as 521 ± 52 µM; on zGlyRα4b/ßa, 236 ± 17 µM; on zGlyRα3 homomer, 125 ± 7.9 µM.
In the case of `O=C1C[C@@H]2OCC=C3CN4CC[C@]56c7ccccc7N1[C@H]5[C@H]2[C@H]3C[C@H]46` [strychnine], the IC50 against zGlyRα2 homomer was 0.212 ± 0.037 µM; against zGlyRα2/ßb, 0.121 ± 0.016 µM; at zGlyRα3/ßb it was 0.041 ± 0.0081 µM; in the assay on zGlyRα1/ßb (setting [2]) it was 0.074 ± 0.017 µM; at zGlyRα4a homomer it was 0.055 ± 0.012 µM; on zGlyRα4a/ßa it was 0.043 ± 0.022 µM. Besides, the IC50 came out at 0.021 ± 0.0031 µM at zGlyRα4b/ßb; 0.292 ± 0.043 µM against zGlyRα2/ßa; 0.012 ± 0.004 µM with zGlyRα1/ßa (setting [2]); 0.052 ± 0.011 µM against zGlyRα4b homomer; 0.018 ± 0.0026 µM against zGlyRα4a/ßb; 0.083 ± 0.016 µM against zGlyRα3/ßa. Also, the IC50 at zGlyRα4b/ßa worked out at 0.081 ± 0.016 µM; at zGlyRα3 homomer, 0.021 ± 0.008 µM.
